This note sets out measurements from patent publication US7094753B2, “Somatostatin analog and uses thereof” (Societe de Conseils de Recherches et d'Applications …, priority 2001, dated 2006).

The subject of test [1] is mixed GH-/PRL-secreting tumor cells. The experiment in a line: Inhibition of PRL release in mixed GH-/PRL-secreting tumor cell cultures. It is filed as cell-based, human. The conditions noted are these: five tumor cell cultures (A1, A2, A7, A9, A10); for mean maximal PRL suppression: at 10 nmol/L. As to the method:
(§1) GH and PRL were measured using commercial immunoradiometric kits (Immunotech, Marseilles, France). Normal GH values ranged from 0.2–2.4 μg/L; normal PRL values ranged from 1–24 μg/L in women and from 1–17 μg/L in men. After an ethanol-acid extraction, the plasma IGF-I assay was performed using the IGF-I RIA kit from Nichols Institute Diagnostics (San Juan Capistrano, Calif.).
(§2) A portion of each tumor obtained at surgery was dissociated by mechanical and enzymatic methods. […] Tumor cells were initially cultured in DMEM supplemented with 10% FCS for 3 days. On day 3, the cells were washed and plated in multiwell culture dishes (Costar 3524, Brumath, France) coated with extracellular matrix from bovine endothelial corneal cells as previously described (Jaquet P, et al., 1985, Horm Res. 22:153–163.) at a density of 2×10^4 cells/well. When they were attached to the matrix on days 5–8, depending on the culture, the medium was removed and replaced with DMEM supplemented with 2% FCS, antibiotics, transferrin, and selenium as previously described (Jaquet P, et al., 1985, Horm Res. 22:153–163.). […] Each drug concentration was tested in quadruplicate.
(§3) SRIF-14 was purchased from Sigma (Saint-Quentin Fallavier, France). […] The native SRIF and SRIF analogs were dissolved in 0.01 mol/L acetic acid containing 0.1% purified serum albumin (Life Technologies, Inc., Cergy-Pontoise, France). The drugs were stored at −80 C. as 10^−3 mol/L solutions. For each experiment, fresh working solutions were prepared from a new aliquot.
(§4) The results are presented as the mean±SEM. Statistical significance between two unpaired groups was determined by the Mann-Whitney test. To measure the strength of association between the pairs of variables without specifying dependencies, Spearman order correlation's were used. P<0.05 was considered significant for all tests.

Test [2] concerns GH-secreting adenoma cells. To be noted: for suppression of GH: 10 nM; for mean maximal GH suppression: at nanomolar concentrations; for EC50: read-out: EC50 of inhibition of GH release. On the procedure:
as §1, §2, §3, §4

The test system of the next test is GH. Kind of test: Acute octreotide test in acromegalic patients (GH decrease). The class given is in vivo, human. The conditions noted are these: for mean GH suppression: single 200 μg injection, GH 2–6 h after injection vs basal; for Percent inhibition vs. GH basal value: 2–6 h after 200 μg sc; for GH under octreotide: mean GH 2–6 h after 200 μg sc. As to the method: Ten acromegalic patients (seven women and three men), aged 26–62 years, presenting with macroadenoma were studied. Their endocrine status and the neuroradiological characterization of the pituitary adenomas were documented before treatment. Basal GH levels were the mean of three random samples obtained between 0800–0900 h. The basal IGF-I value was evaluated under fasting conditions between 0800–0900 h. […] All patients underwent transsphenoidal surgery.
as §1

Setting [3] is: octreotide partially responsive tumors (A6–A10).
[4] abbreviates: octreotide-sensitive tumors (A1–A5).

Usually EC50 stands for the concentration giving half of the maximal effect.

Read-outs that look alike come from different tables or passages of the source. Bridge positions count the residues as written; N and C are the ends. Square brackets hold non-standard residues; d marks the D form. Peptide text beside a SMILES is read from it.

As for Octreotide, the “mean maximal PRL suppression” value in test [1] is 34±7%. In addition, the “suppression of GH” value in test [2] (setting [3]) was found to be 26±7%. In addition, in test [2] (setting [4]), the “mean maximal GH suppression” value is 36±7%. Moreover, the EC50 amounted to 0.2 ± 0.145 nM in test [2] (cultures from the 5 octreotide partially responsive tumors (A6–A10)) and 0.055 ± 0.015 nM in test [2] (cultures from the 5 octreotide-sensitive tumors (A1–A5), 8-h period). For the same compound, the “mean GH suppression” value with GH (five full octreotide responders) was 79±7%; in the test on GH (five partial octreotide responders), 33±6%. Moreover, the “Percent inhibition vs. GH basal value” in the test on GH (patient A1) is listed as 91%; in the test on GH (patient A2) it was 82%; in the test with GH (patient A3) it was 76%; in the test on GH (patient A4), 75%; with GH (patient A5) it was 75%; in the test with GH (patient A6), 40%. The “Percent inhibition vs. GH basal value” in the test with GH (patient A7) was 39%; in the test with GH (patient A8) it was 37%; with GH (patient A9) it was 29%; with GH (patient A10), 23%. Moreover, the GH under octreotide with GH (patient A1, basal 11) was 1 µg/L; in the test with GH (patient A2, basal 22), 4 µg/L; in the test with GH (patient A3, basal 109), 26 µg/L; with GH (patient A4, basal 141) it was 36 µg/L; in the test with GH (patient A5, basal 47), 12 µg/L; with GH (patient A6, basal 5), 3 µg/L. The GH under octreotide in the test on GH (patient A7, basal 26) amounted to 15.8 µg/L; in the test on GH (patient A8, basal 13), 8.2 µg/L; in the test on GH (patient A9, basal 141), 100 µg/L; in the test with GH (patient A10, basal 195), 151 µg/L.

On to `C[C@H](N)C(=O)NCC(=O)N[C@H]1CSSC[C@@H](C(=O)O)NC(=O)[C@H](CO)NC(=O)[C@H]([C@@H](C)O)NC(=O)[C@H](Cc2ccccc2)NC(=O)[C@H]([C@@H](C)O)NC(=O)[C@H](CCCCN)NC(=O)[C@H](Cc2c[nH]c3ccccc23)NC(=O)[C@H](Cc2ccccc2)NC(=O)[C@H](Cc2ccccc2)NC(=O)[C@H](CC(N)=O)NC(=O)[C@H](CCCCN)NC1=O` [Somatostatin-14], for which the “dose-related inhibition of PRL release compared with Compound B” value in test [1] is listed as “similarly achieved”. The “maximal GH suppression compared with Compound B” value in test [2] (setting [3]) is given as “equally achieved”.

In the case of `C[C@@H](O)[C@@H]1NC(=O)[C@H](CCCCN)NC(=O)[C@@H](Cc2c[nH]c3ccccc23)NC(=O)[C@H](Cc2ccccc2)NC(=O)[C@H](Cc2ccccc2)NC(=O)[C@@H](N)CSSC[C@@H](C(N)=O)NC(=O)[C@H](Cc2ccccc2)NC1=O` [Compound B] (H-CFF[dW]KTFC-NH2; disulfide 1-8), in test [1], the “mean maximal PRL inhibition” value was 52±6%. Also, in test [2] (setting [3]), the “maximal GH suppression” value worked out at 38±7%. Further, the “concentration producing maximal inhibition of GH release” value in test [2] (setting [4]) is on record as 10 nmol/L.

In the case of `CC[C@@H]1NC(=O)[C@H](CCCCN)NC(=O)[C@@H](Cc2c[nH]c3ccccc23)NC(=O)[C@H](Cc2ccc(O)cc2)NC(=O)[C@@H](NC(=O)[C@@H](Cc2ccccc2)NS(=O)(=O)CCN2CCN(CCO)CC2)CSSC[C@@H](C(=O)N[C@H](C(N)=O)[C@@H](C)O)NC1=O` [Compound A], the “mean maximal PRL inhibition” value in test [1] amounted to 34±5%. Further, the “maximal GH suppression” value in test [2] (setting [3]) is given as 31±5%. Besides, the “maximal mean GH suppression” value in test [2] (octreotide-sensitive tumors (A1–A5), at 0.1 nmol/L) amounted to 41±7%.

Regarding `CC(C)[C@@H]1NC(=O)[C@H](CCCCN)NC(=O)[C@@H](Cc2c[nH]c3ccccc23)NC(=O)[C@H](Cc2ccc(O)c(I)c2)NC(=O)[C@@H](NC(=O)[C@H](N)Cc2ccccc2)CSSC[C@@H](C(=O)N[C@H](C(N)=O)[C@@H](C)O)NC1=O` [Formula (I), D-Phe-c(Cys-Tyr(I)-D-Trp-Lys-Val-Cys)-Thr-NH2], in test [1], the “mean maximal PRL suppression” value is recorded as 51±5%. In addition, in test [2] (setting [3]), the “maximal GH suppression” value turned out to be 44±5% and the “suppression of GH” value turned out to be 44±5%. In test [2] (setting [4]), the “mean maximal GH suppression” value is 44±5%.
